Values after ≈ are worked out from the molar mass of the structure shown. Read-outs that look alike come from different tables or passages of the source. Where a SMILES comes first, the peptide text is derived from it. Where no end group is shown, it is not given here.
Legend:
CHO-K1 = conditions: various eukaryotic cells including CHO-K1; cited from earlier work
Description: This peptide, well known for its pleiotropic activities in human, mediates its biological activities through the activation of three G protein-coupled receptors, named PAC1, VPAC1, and VPAC2[8]. […] The ...

Escherichia coli (JM109) = assay: MIC, CLSI microdilution; format: cell-based; conditions: MHB, 37 °C, 20h, OD read-out, at least triplicate
Red blood cells = assay: Haemolytic activity; format: cell-based; conditions: human red blood cells in PBS, 30 min or 3h, 37°C; at 45 μg/mL (PACAP38) or 37 μg/mL (PACAP(9–38)); absorbance 545 nm; 3 independent experiments in triplicate
Experimental: All experimental procedures were performed in accordance with regulations and ethical guidelines and approved by the institutional committee of the Institut National de la Recherche Scientifique-Institut Armand-Frappier. Blood from healthy human volunteers was collected into sodium citrate-buffered vacutainers. Blood donations were obtained from informed and consenting individuals according to institutionally approved procedures. Red blood cells were pelleted (700 x g; 10 min), washed three times with 9 volumes of PBS by centrifugation (700 x g; 10 min), and then resuspended in PBS. […] PBS-incubated red blood cells were considered as negative control and maximum lysis of erythrocytes was obtained by incubating the cells with 0.1% (v/v) Triton X-100. At the end of the incubation period, cells were pelleted (700 x g, 10 min) and 100 μL of each supernatant was used to evaluate the release of hemoglobin by measuring the absorbance at 545 nm. Results were obtained from 3 independent experiments performed in triplicate.

[1] = system: Pseudomonas putida (KT2440); conditions: 20 h
[2] = system: Pseudomonas fluorescens (MF37); conditions: 20 h
[3] = system: Pseudomonas aeruginosa (PA14); conditions: PA14, 20 h
[4] = system: Burkholderia cenocepacia (J2315); conditions: 20 h
[5] = system: Burkholderia thailendensis (ATCC700388); conditions: CLSI microdilution, MHB, 37 °C, 20h, OD read-out; at least triplicate
[6] = system: Serratia marcescens (ATCC14756); conditions: ATCC14756, 20 h
[7] = system: Bacillus circulans (LSPQ3543); conditions: 20 h
[8] = system: Bacillus cereus (ATCC11778); conditions: ATCC11778, 20 h
[9] = system: Actinobacillus pleuropneumoniae (4074); conditions: 20 h
Bacillus subtilis (PY79) = conditions: PY79, 20 h
Bacillus velezensis = conditions: 20 h
[10] = system: Bacillus amyloliquefaciens (LMG22478); conditions: LMG22478, 20 h
[11] = system: Staphylococcus aureus (ATCC6538#P); conditions: ATCC6538, 20 h
[12] = system: Staphylococcus aureus (Newman); conditions: 20 h
[13] = system: Pseudomonas aeruginosa (ATCC33350-Sero-2); conditions: ATCC33350, 20 h
[14] = system: Escherichia coli ATCC25922; conditions: ATCC25922, 20 h
[15] = system: Escherichia coli (O157 :H7); conditions: CLSI microdilution, MHB, 37 °C, 20h, OD read-out; at least triplicate
[16] = system: Burkholderia cenocepacia (K56-2); conditions: 20 h
[17] = system: Burkholderia cenocepacia (LMG18829); conditions: LMG18829, 20 h
[18] = system: Burkholderia cenocepacia (LMG19240); conditions: CLSI microdilution, MHB, 37 °C, 20h, OD read-out; at least triplicate
[19] = system: Burkholderia cenocepacia (CEP0511 Gvar3b); conditions: CLSI microdilution, MHB, 37 °C, 20h, OD read-out; at least triplicate
Bacillus subtilis (2597) = conditions: 2597, 20 h
[20] = system: various bacterial strains; conditions: CLSI microdilution
human PAC1 receptor = molecular target: T1, human PAC1 receptor (Homo sapiens, UniProt P41586); assay: Radioligand binding assay, 125I-Ac-PACAP27
T1 construct: expressed in transfected cells

human VPAC1 receptor = molecular target: T2, human VPAC1 receptor (Homo sapiens, UniProt P32241); assay: Radioligand binding assay, 125I-Ac-PACAP27
T2 construct: expressed in transfected cells
Experimental: (§1) Chinese hamster ovary (CHO) cells stably and individually expressing human receptor PAC1, VPAC1 or VPAC2 were grown in Ham’s F12 medium supplemented with 10% of fetal bovine serum (FBS), 2 mM L-glutamine, 100 UI/mL of penicillin and streptomycin (P/S) and 400 μg/mL of G418. The cell line was maintained at 37 °C in a humidified atmosphere of 5% CO2 and passages were performed by trypsinization when cells reached about 80% confluence.
(§2) Acetylated PACAP27 was radioiodinated using the chloramine-T oxidation technique and purified on a Sep-Pak C18 cartridge (Waters, Milford, MA, USA). Binding assays were performed using CHO cells stably transfected with the human PAC1, VPAC1 or VPAC2 receptor isoform. Cells were seeded at a density of 150,000 cells/well in 24-well plates. The next day, cells were washed with binding buffer (0.1% BSA, 25 mM Tris–HCl, 25 mM MgCl2, pH 7.4) for 10 min at room temperature. The solution was replaced with a fresh solution containing 0.05 nM of ^125I-Ac-PACAP27 and increasing concentrations of peptide (10^−14 to 10^-5M). After 2h of incubation at room temperature, cells were washed twice with the binding buffer and then lysed with sodium hydroxide (0.1 M). Cell-bound radioactivity was quantified using a γ-counter. Results were expressed as percentage of specific binding of ^125I-Ac-PACAP27.

human VPAC2 receptor = molecular target: T3, human VPAC2 receptor (Homo sapiens, UniProt P41587); assay: Radioligand binding assay, 125I-Ac-PACAP27; conditions: CHO cells expressing human VPAC2, 0.05 nM 125I-Ac-PACAP27, 2h, room temperature
T3 construct: expressed in transfected cells
Experimental: as §1, §2

T1 sequence (P41586 21-468): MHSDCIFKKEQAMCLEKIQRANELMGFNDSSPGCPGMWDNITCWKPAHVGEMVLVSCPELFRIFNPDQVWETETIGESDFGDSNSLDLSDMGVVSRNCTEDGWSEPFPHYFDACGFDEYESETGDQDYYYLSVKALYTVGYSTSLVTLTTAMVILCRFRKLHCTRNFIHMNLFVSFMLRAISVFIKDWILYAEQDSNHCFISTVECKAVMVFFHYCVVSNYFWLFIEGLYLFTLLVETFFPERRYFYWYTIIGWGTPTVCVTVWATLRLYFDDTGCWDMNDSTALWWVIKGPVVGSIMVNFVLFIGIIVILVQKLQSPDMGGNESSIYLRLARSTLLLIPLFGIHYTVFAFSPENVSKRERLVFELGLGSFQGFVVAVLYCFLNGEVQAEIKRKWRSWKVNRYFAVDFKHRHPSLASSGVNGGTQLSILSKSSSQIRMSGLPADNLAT
T3 sequence (P41587 24-438): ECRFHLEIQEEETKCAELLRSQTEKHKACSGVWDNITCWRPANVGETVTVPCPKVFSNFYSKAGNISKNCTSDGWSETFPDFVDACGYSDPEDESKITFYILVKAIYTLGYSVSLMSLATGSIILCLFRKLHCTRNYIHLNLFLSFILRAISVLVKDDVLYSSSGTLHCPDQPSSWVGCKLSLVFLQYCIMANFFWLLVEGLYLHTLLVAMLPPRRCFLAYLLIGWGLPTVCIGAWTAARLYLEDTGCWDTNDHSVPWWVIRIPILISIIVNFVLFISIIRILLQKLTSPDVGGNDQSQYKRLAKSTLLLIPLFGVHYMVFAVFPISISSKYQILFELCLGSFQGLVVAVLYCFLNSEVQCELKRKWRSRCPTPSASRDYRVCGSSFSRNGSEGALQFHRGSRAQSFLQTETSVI
T2 sequence (P32241 31-457): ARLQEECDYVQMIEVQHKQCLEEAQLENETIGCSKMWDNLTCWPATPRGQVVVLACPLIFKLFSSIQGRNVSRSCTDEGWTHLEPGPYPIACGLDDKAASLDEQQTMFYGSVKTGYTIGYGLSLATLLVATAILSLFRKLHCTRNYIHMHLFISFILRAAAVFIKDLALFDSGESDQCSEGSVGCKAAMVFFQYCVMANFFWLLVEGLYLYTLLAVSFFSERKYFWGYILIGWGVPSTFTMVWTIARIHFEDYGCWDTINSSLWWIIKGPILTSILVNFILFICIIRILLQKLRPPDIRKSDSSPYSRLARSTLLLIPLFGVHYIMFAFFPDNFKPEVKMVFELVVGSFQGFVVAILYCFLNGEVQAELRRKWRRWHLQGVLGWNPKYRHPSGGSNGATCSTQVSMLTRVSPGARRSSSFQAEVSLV

For “[Arg^17]PACAP(11–38) (SRYRKQRAVKKYLAAVLGKRYKQRVKNK; ends and bridges not checked; UniProt P18509 142-169, looked up, variant M17R)”, the Cytotoxic effect (CHO-K1) is given as “no cytotoxic effect”.

With `CC[C@H](C)[C@H](NC(=O)CNC(=O)[C@H](CC(=O)O)NC(=O)[C@H](CO)NC(=O)[C@@H](N)Cc1cnc[nH]1)C(=O)N[C@@H](Cc1ccccc1)C(=O)N[C@H](C(=O)N[C@@H](CC(=O)O)C(=O)N[C@@H](CO)C(=O)N[C@@H](Cc1ccc(O)cc1)C(=O)N[C@@H](CO)C(=O)N[C@@H](CCCNC(=N)N)C(=O)N[C@@H](Cc1ccc(O)cc1)C(=O)N[C@@H](CCCNC(=N)N)C(=O)N[C@@H](CCCCN)C(=O)N[C@@H](CCC(N)=O)C(=O)N[C@@H](CCSC)C(=O)N[C@@H](C)C(=O)N[C@H](C(=O)N[C@@H](CCCCN)C(=O)N[C@@H](CCCCN)C(=O)N[C@@H](Cc1ccc(O)cc1)C(=O)N[C@@H](CC(C)C)C(=O)N[C@@H](C)C(=O)N[C@@H](C)C(=O)N[C@H](C(=O)N[C@@H](CC(C)C)C(=O)NCC(=O)N[C@@H](CCCCN)C(=O)N[C@@H](CCCNC(=N)N)C(=O)N[C@@H](Cc1ccc(O)cc1)C(=O)N[C@@H](CCCCN)C(=O)N[C@@H](CCC(N)=O)C(=O)N[C@@H](CCCNC(=N)N)C(=O)N[C@H](C(=O)N[C@@H](CCCCN)C(=O)N[C@@H](CC(N)=O)C(=O)N[C@@H](CCCCN)C(N)=O)C(C)C)C(C)C)C(C)C)[C@@H](C)O` [compound 1, PACAP38] the “MIC, Escherichia coli (JM109)” value (Escherichia coli (JM109)) was greater than 200 µg/mL, the Haemolytic activity (Red blood cells) was “do not exert a very significant haemolytic activity” and the “MIC, Pseudomonas putida (KT2440)” value [1] was 113 µg/mL (≈ 24.9 µM). The “MIC, Pseudomonas fluorescens (MF37)” value [2] was greater than 200 µg/mL, the “MIC, Pseudomonas aeruginosa (PA14)” value [3] was greater than 200 µg/mL and the “MIC, Burkholderia cenocepacia (J2315)” value [4] was 10 µg/mL (≈ 2.21 µM). The “MIC, Burkholderia thailendensis (ATCC700388)” value [5] was greater than 200 µg/mL, the “MIC, Serratia marcescens (ATCC14756)” value [6] was greater than 200 µg/mL and the “MIC, Bacillus circulans (LSPQ3543)” value [7] was 94 µg/mL (≈ 20.7 µM). The “MIC, Bacillus cereus (ATCC11778)” value [8] was greater than 200 µg/mL, the “MIC, Actinobacillus pleuropneumoniae” value [9] was 7.5 µg/mL (≈ 1.65 µM) and the “MIC, Bacillus subtilis (PY79)” value (Bacillus subtilis (PY79)) was 28 µg/mL (≈ 6.18 µM). The “MIC, Bacillus velezensis” value (Bacillus velezensis) was 76 µg/mL (≈ 16.8 µM), the “MIC, Bacillus amyloliquefaciens” value [10] was 42 µg/mL (≈ 9.26 µM) and the “MIC, Staphylococcus aureus (ATCC6538#P)” value [11] was greater than 200 µg/mL. For the same compound, the “MIC, Staphylococcus aureus (Newman)” value [12] was greater than 200 µg/mL, the “MIC, Pseudomonas aeruginosa (ATCC33350-Sero-2)” value [13] was greater than 200 µg/mL and the “MIC, Escherichia coli ATCC25922” value [14] was greater than 200 µg/mL. The “MIC, Escherichia coli (O157 :H7)” value [15] was greater than 200 µg/mL, the “MIC, Burkholderia cenocepacia (K56-2)” value [16] was greater than 200 µg/mL and the “MIC, Burkholderia cenocepacia (LMG18829)” value [17] was greater than 200 µg/mL. For the same compound, the “MIC, Burkholderia cenocepacia (LMG19240)” value [18] was greater than 200 µg/mL, the “MIC, Burkholderia cenocepacia (CEP0511 Gvar3b)” value [19] was greater than 200 µg/mL and the “MIC, Bacillus subtilis (2597)” value (Bacillus subtilis (2597)) was greater than 200 µg/mL.

With `CC[C@H](C)[C@H](NC(=O)CNC(=O)[C@H](CC(=O)O)NC(=O)[C@H](CO)NC(=O)[C@@H](N)Cc1c[nH]cn1)C(=O)N1Cc2ccccc2C[C@H]1C(=O)N[C@H](C(=O)N[C@@H](CC(=O)O)C(=O)N[C@@H](CO)C(=O)N[C@@H](Cc1ccc(O)cc1)C(=O)N[C@@H](CO)C(=O)N[C@@H](CCCNC(=N)N)C(=O)N[C@@H](Cc1ccc(O)cc1)C(=O)N[C@@H](CCCNC(=N)N)C(=O)N[C@@H](CCCCN)C(=O)N[C@@H](CCC(N)=O)C(=O)N[C@@H](CCSC)C(=O)N[C@@H](C)C(=O)N[C@H](C(=O)N[C@@H](CCCCN)C(=O)N[C@@H](CCCCN)C(=O)N[C@@H](Cc1ccc(O)cc1)C(=O)N[C@@H](CC(C)C)C(=O)N[C@@H](C)C(=O)N[C@@H](C)C(=O)N[C@H](C(=O)N[C@@H](CC(C)C)C(N)=O)C(C)C)C(C)C)[C@@H](C)O` [compound 8, [Tic^6]PACAP27] the “MIC, Escherichia coli (JM109)” value (Escherichia coli (JM109)) was greater than 160 µg/mL, the “MIC, Pseudomonas putida (KT2440)” value [1] was greater than 160 µg/mL and the “MIC, Pseudomonas fluorescens (MF37)” value [2] was greater than 160 µg/mL. The “MIC, Pseudomonas aeruginosa (PA14)” value [3] was greater than 160 µg/mL, the “MIC, Burkholderia cenocepacia (J2315)” value [4] was greater than 160 µg/mL and the “MIC, Burkholderia thailendensis (ATCC700388)” value [5] was greater than 160 µg/mL. The “MIC, Serratia marcescens (ATCC14756)” value [6] was greater than 160 µg/mL, the “MIC, Bacillus circulans (LSPQ3543)” value [7] was greater than 160 µg/mL and the “MIC, Bacillus cereus (ATCC11778)” value [8] was greater than 160 µg/mL. The “MIC, Actinobacillus pleuropneumoniae” value [9] was greater than 160 µg/mL, the “MIC, Bacillus subtilis (PY79)” value (Bacillus subtilis (PY79)) was greater than 160 µg/mL and the “MIC, Bacillus velezensis” value (Bacillus velezensis) was greater than 160 µg/mL. The “MIC, Bacillus amyloliquefaciens” value [10] was greater than 160 µg/mL, the “MIC, Staphylococcus aureus (ATCC6538#P)” value [11] was greater than 160 µg/mL and the “MIC, Staphylococcus aureus (Newman)” value [12] was greater than 160 µg/mL. For the same compound, the “MIC (ability to reduce bacterial growth, tested strains)” value [20] was greater than 160 µg/mL.

For `CSCC[C@H](NC(=O)[C@H](CCC(N)=O)NC(=O)[C@H](CCCCN)NC(=O)[C@H](CCCN=C(N)N)NC(=O)[C@H](Cc1ccc(O)cc1)NC(=O)[C@H](CCCN=C(N)N)NC(=O)[C@H](CO)NC(=O)[C@H](Cc1ccc(O)cc1)NC(=O)[C@@H](N)CO)C(=O)N[C@@H](C)C(=O)N[C@H](C(=O)N[C@@H](CCCCN)C(=O)N[C@@H](CCCCN)C(=O)N[C@@H](Cc1ccc(O)cc1)C(=O)N[C@@H](CC(C)C)C(=O)N[C@@H](C)C(=O)N[C@@H](C)C(=O)N[C@H](C(=O)N[C@@H](CC(C)C)C(=O)NCC(=O)N[C@@H](CCCCN)C(=O)N[C@@H](CCCN=C(N)N)C(=O)N[C@@H](Cc1ccc(O)cc1)C(=O)N[C@@H](CCCCN)C(=O)N[C@@H](CCC(N)=O)C(=O)N[C@@H](CCCN=C(N)N)C(=O)N[C@H](C(=O)N[C@@H](CCCCN)C(=O)N[C@@H](CC(N)=O)C(=O)N[C@@H](CCCCN)C(N)=O)C(C)C)C(C)C)C(C)C` [compound 10, PACAP(9–38)] (H-SYSRYRKQMAVKKYLAAVLGKRYKQRVKNK-NH2), the IC50 (human PAC1 receptor) was greater than 1000 nM, the IC50 (human PAC1 receptor; PAC1 pIC50, CHO cells expressing human PAC1, 0.05 nM 125I-Ac-PACAP27, 2h, room temperature) was 1350 nM and the IC50 (human VPAC1 receptor) was greater than 1000 nM. The IC50 (human VPAC1 receptor; VPAC1 pIC50, CHO cells expressing human VPAC1, 0.05 nM 125I-Ac-PACAP27, 2h, room temperature) was 5130 nM, the IC50 (human VPAC2 receptor; 95% confidence limits in parentheses) was greater than 1000 nM and the IC50 (human VPAC2 receptor; read-out: VPAC2 pIC50 (converted)) was 1700 nM. For the same compound, the Haemolytic activity (Red blood cells) was “do not exert a very significant haemolytic activity”.

From publication PMC6248945, “Antibacterial properties of the pituitary adenylate cyclase-activating polypeptide: A new human antimicrobial peptide” (PLoS ONE, 2018)
